Measurements published in patent publication US20250018014A1, “METHOD FOR TREATING AND/OR PREVENTING REGNASE-1-RELATED DISEASE” (OSAKA UNIVERSITY, priority 2018, published 2025).
Residues, ends and D or L forms follow the SMILES beside them.

Target: T1, FL_Reg1 (Homo sapiens, UniProt Q5D1E8)
T1 construct: made in house; host or cells: Expi293 cells
T1 sequence (Q5D1E8 1-599): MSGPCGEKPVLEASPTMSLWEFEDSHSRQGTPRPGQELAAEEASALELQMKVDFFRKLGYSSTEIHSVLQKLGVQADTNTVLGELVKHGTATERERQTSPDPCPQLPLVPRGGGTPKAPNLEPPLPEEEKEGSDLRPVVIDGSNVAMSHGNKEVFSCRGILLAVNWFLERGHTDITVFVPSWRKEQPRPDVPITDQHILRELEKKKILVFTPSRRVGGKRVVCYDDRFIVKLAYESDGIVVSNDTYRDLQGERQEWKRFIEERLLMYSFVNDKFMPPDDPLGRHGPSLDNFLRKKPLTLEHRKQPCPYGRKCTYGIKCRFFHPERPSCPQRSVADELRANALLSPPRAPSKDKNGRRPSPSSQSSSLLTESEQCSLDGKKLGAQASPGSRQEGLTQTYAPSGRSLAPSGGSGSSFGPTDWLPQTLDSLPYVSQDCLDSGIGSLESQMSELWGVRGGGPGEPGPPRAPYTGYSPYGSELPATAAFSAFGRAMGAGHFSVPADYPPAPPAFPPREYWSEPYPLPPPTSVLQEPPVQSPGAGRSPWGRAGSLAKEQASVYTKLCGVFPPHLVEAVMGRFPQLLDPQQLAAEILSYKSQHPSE
Assay: Binding of Regnase-1 and peptide compounds (affinity mass analysis, SEC then LC/MS)
Details: 1 μM FL_Reg1, final compound concentration 1 μM, 23° C. for one hour
Experimental: To a 96 PP plate (Greiner bio-one, 651201) coated with lipidure (Lipidure-CM5206) (NOF CORPORATION, 71S42000001), 2 μL of Tris-Buffer (25 mM Tris-NaOH pH 8.3, 300 mM NaCl, 1 mM DTT, 1 mM EDTA, 1% DMSO) was dispensed, and then 1 mM DMSO sample was added at 20 nL each with a LABCYTE ECHO (registered trademark) acoustic dispensing system. Furthermore, 18 μL of protein prepared at 1 μM FL_Reg1 in advance using Tris-Buffer was added (final compound concentration: 1 μM), and the mixture was incubated in the dark at 23° C. for one hour. Then, to a 96-well, 400 μL, Hydrophilic PVDF 0.45 μm, Long drip (Harvard, 74-5556), 100 μL of P-2, Fine (Bio-Rad, 1504114) which had been swollen in advance was added, and conditioning was performed by centrifuging several times at 2000× G for two minutes using the buffer. Next, 20 μL of the sample after incubation was added to the conditioned 96-well, 400 μL, Hydrophilic PVDF 0.45 μm, Long drip, and SEC treatment was performed by centrifugation at 2000×G for two minutes. To the liquid from SEC, 32 μL of acetonitrile (LC/MS grade, FUJIFILM Wako Pure Chemical Industries, Ltd.) supplemented with 0.1% formic acid (LC/MS grade, 067-04531, FUJIFILM Wako Pure Chemical Industries, Ltd.) was added, and this was centrifuged at 1800×G for five minutes, and the supernatant was used as an analysis sample for LC/MS measurement. Binding to Regnase-1 was detected for all of the peptide compounds, PP1 to PP25.

| AS-MS ratio(%) | SMILES |
| --- | --- |
| 66.7% | CC[C@H](C)[C@@H]1NC(=O)[C@H](CC(N)=O)NC(=O)[C@H]([C@@H](C)CC)NC(=O)[C@H](Cc2ccc(O)cc2)NC(=O)[C@H](Cc2c[nH]c3ccccc23)NC(=O)[C@H](CO)NC(=O)[C@H](CC(N)=O)NC(=O)[C@H](C)N(C)C(=O)C[C@@H](C(=O)N2CCCC2)NC(=O)[C@H](Cc2c[nH]cn2)NC(=O)CNC(=O)[C@H](Cc2c[nH]c3ccccc23)NC1=O [PP15] (HELM PEPTIDE1{[meA].N.S.W.Y.I.N.I.W.G.H.D.[C1CCN([*:1])C1]}$PEPTIDE1,PEPTIDE1,1:R1-12:R3$$$V2.0) |
| 15.1% | CC[C@H](C)[C@@H]1NC(=O)[C@H](CCCCN)NC(=O)[C@H](Cc2ccc(O)cc2)NC(=O)[C@H](Cc2c[nH]c3ccccc23)NC(=O)[C@H](CO)NC(=O)[C@H](CC(N)=O)NC(=O)[C@H](C)N(C)C(=O)C[C@@H](C(=O)N2CCCC2)NC(=O)[C@H](CC(C)C)NC(=O)CNC(=O)[C@H](Cc2c[nH]c3ccccc23)NC1=O [PP21] (HELM PEPTIDE1{[meA].N.S.W.Y.K.I.W.G.L.D.[C1CCN([*:1])C1]}$PEPTIDE1,PEPTIDE1,1:R1-11:R3$$$V2.0) |
| 14.5% | CC[C@H](C)[C@@H]1NC(=O)[C@H](CCCNC(=N)N)NC(=O)[C@H](Cc2ccc(O)cc2)NC(=O)[C@H](Cc2c[nH]c3ccccc23)NC(=O)[C@H](CO)NC(=O)[C@H](CC(N)=O)NC(=O)[C@H](C)N(C)C(=O)C[C@@H](C(=O)N2CCCC2)NC(=O)[C@H](CC(C)C)NC(=O)CNC(=O)[C@H](Cc2c[nH]c3ccccc23)NC1=O [PP22] (HELM PEPTIDE1{[meA].N.S.W.Y.R.I.W.G.L.D.[C1CCN([*:1])C1]}$PEPTIDE1,PEPTIDE1,1:R1-11:R3$$$V2.0) |
| 3.7% | CC[C@H](C)[C@@H]1NC(=O)[C@H](CO)NC(=O)[C@H](CCCNC(=N)N)NC(=O)[C@H](Cc2ccc(O)cc2)NC(=O)[C@H](Cc2ccc(O)cc2)NC(=O)[C@H](Cc2c[nH]c3ccccc23)NC(=O)[C@H](CO)NC(=O)[C@H](CCC(N)=O)NC(=O)[C@H](Cc2ccc(O)cc2)NC(=O)[C@H](CC(N)=O)NC(=O)[C@H](C)N(C)C(=O)C[C@@H](C(=O)N2CCCC2)NC(=O)[C@H](Cc2c[nH]c3ccccc23)NC1=O [PP10] (HELM PEPTIDE1{[meA].N.Y.Q.S.W.Y.Y.R.S.I.W.D.[C1CCN([*:1])C1]}$PEPTIDE1,PEPTIDE1,1:R1-13:R3$$$V2.0) |
| 17.9% | CC[C@H](C)[C@@H]1NC(=O)[C@H](CC(N)=O)NC(=O)[C@H](Cc2ccc(O)cc2)NC(=O)[C@H](Cc2c[nH]c3ccccc23)NC(=O)[C@H](CO)NC(=O)[C@H](CC(N)=O)NC(=O)[C@H](CO)NC(=O)[C@H](Cc2ccccc2)NC(=O)[C@H](CC(N)=O)NC(=O)[C@H](C)N(C)C(=O)C[C@@H](C(=O)N2CCCC2)NC(=O)[C@H](Cc2c[nH]c3ccccc23)NC1=O [PP16] (HELM PEPTIDE1{[meA].N.F.S.N.S.W.Y.N.I.W.D.[C1CCN([*:1])C1]}$PEPTIDE1,PEPTIDE1,1:R1-12:R3$$$V2.0) |
